{
  "source": "patent US11433071B2",
  "about": "“Heterocyclylamines as PI3K inhibitors” (Incyte Corporation, priority 2011, dated 2022)",
  "biological_target": "PI3Kδ (p110δ/p85α) (Homo sapiens (Human), UniProt O00329)",
  "sequence (O00329 whole entry)": "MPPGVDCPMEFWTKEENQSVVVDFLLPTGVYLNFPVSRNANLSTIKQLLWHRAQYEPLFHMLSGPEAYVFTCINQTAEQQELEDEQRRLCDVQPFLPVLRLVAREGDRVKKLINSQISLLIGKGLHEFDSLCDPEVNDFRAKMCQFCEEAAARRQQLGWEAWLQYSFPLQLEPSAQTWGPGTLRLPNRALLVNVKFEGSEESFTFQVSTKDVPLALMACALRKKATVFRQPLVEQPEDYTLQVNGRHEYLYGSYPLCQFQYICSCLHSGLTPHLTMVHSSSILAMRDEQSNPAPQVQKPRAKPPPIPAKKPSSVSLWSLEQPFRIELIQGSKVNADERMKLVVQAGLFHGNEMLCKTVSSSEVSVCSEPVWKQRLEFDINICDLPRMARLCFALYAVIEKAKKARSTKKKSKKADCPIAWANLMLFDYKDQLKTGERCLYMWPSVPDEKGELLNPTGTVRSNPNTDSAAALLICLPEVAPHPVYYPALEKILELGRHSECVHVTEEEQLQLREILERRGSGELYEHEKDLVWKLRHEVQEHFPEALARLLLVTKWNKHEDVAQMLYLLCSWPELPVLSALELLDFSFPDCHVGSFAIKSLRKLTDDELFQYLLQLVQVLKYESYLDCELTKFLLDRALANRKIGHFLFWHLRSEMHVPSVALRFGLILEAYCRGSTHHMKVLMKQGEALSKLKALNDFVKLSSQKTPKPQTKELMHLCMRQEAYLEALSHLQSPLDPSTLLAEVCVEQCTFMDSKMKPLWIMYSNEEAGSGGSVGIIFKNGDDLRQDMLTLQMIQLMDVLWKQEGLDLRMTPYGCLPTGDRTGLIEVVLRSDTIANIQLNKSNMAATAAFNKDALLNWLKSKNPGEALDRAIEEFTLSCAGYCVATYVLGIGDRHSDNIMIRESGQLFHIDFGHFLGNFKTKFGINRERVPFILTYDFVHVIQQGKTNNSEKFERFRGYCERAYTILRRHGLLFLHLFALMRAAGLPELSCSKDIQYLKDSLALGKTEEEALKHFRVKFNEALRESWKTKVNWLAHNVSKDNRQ",
  "sequence (P27986 whole entry partner)": "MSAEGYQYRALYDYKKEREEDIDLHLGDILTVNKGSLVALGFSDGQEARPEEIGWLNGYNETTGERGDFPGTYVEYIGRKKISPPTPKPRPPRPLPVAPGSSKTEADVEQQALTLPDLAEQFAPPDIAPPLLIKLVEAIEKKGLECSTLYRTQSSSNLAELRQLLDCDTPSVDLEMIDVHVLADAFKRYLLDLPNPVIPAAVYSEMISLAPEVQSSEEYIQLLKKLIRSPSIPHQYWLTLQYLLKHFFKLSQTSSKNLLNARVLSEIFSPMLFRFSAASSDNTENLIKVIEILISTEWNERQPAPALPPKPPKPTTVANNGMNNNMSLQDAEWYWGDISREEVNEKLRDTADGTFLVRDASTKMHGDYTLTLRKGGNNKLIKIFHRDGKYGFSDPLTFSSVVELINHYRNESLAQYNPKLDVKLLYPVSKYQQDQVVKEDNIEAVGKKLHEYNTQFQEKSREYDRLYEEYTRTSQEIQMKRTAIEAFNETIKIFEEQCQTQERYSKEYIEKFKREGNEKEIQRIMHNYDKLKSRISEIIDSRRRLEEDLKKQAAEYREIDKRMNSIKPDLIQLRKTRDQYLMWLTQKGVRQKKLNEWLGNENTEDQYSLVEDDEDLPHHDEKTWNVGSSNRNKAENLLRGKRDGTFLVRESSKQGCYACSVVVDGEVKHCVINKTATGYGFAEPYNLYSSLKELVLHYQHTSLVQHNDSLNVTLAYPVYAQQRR",
  "assay": "PI3Kδ scintillation proximity assay (Example A3)",
  "assay_type": "biochemical",
  "details": "assay not given",
  "protocol": "[γ-^33P]ATP (10 mCi/mL) was purchased from Perkin-Elmer (Waltham, Mass.). […] PI3Kδ (p110δ/p85α) was purchased from Millipore (Bedford, Mass.). ATP, MgCl2, DTT, EDTA, MOPS and CHAPS were purchased from Sigma-Aldrich (St. Louis, Mo.). Wheat Germ Agglutinin (WGA) YSi SPA Scintillation Beads was purchased from GE healthcare life sciences (Piscataway, N.J.).\nThe kinase reaction was conducted in polystyrene 384-well matrix white plate from Thermo Fisher Scientific in a final volume of 25 μL. Inhibitors were first diluted serially in DMSO and added to the plate wells before the addition of other reaction components. The final concentration of DMSO in the assay was 0.5%. The PI3K assays were carried out at room temperature in 20 mM MOPS, pH 6.7, 10 mM MgCl2, 5 mM DTT and CHAPS 0.03%. Reactions were initiated by the addition of ATP, the final reaction mixture consisted of 20 μM PIP2, 20 μM ATP, 0.2 μCi [γ-^33P] ATP, 4 nM PI3Kδ. […] 25 mM EDTA, 400 µM ATP. The final concentration of SPA beads was 1.0 mg/mL. After the plate sealing, plates were shaken overnight at room temperature and centrifuged at 1800 rpm for 10 minutes, the radioactivity of the product was determined by scintillation counting on Topcount (Perkin-Elmer). IC50 determination was performed by fitting the curve of percent control activity versus the log of the inhibitor concentration using the GraphPad Prism 3.0 software.",
  "data": [
    {"smiles": "CCOc1c(C(C)n2nc(C)c3c(N)ncnc32)cc(Cl)c(F)c1C1CNC(=O)O1", "note": "(stereo not shown) [Example 357, 5-{3-[1-(4-amino-3-methyl-1H-pyrazolo[3,4-d]pyrimidin-1-yl)ethyl]-5-chloro-2-ethoxy-6-fluorophenyl}-1,3-oxazolidin-2-one]", "values": [
      {"measurement": "relative activity among the four separated stereoisomers (peaks 1-4)", "value": "most active enantiomer"}
    ]}
  ]
}
